The values below are quoted from earlier work in patent US20210145844A1, “COMBINATION THERAPY FOR NICOTINE ADDICTION” (Amygdala Neurosciences, Inc., priority 2018, published 2021).

Broadly, the IC50 is the concentration that inhibits the measured activity by half.

Data set [1] deals with T1, hMAO-A (Homo sapiens, UniProt P21397).
T1 sequence (P21397 1-527): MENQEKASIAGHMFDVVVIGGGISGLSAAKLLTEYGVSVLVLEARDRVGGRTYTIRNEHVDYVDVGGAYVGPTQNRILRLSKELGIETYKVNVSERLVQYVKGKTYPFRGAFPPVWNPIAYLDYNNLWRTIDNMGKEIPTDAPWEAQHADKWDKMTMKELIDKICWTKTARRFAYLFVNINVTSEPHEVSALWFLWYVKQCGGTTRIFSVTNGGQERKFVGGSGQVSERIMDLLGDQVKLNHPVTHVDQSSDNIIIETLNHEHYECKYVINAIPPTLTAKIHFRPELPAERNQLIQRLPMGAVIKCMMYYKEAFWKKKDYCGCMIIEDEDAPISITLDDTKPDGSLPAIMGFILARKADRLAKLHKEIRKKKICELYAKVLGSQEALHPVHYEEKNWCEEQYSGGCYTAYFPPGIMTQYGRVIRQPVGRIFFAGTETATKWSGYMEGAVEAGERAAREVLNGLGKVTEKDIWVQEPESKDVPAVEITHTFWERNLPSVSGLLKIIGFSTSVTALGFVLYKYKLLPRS
The conditions noted are these: read-out: IC50 hMAO-A.

For data set [2], the target named is T2, hMAO-B (Homo sapiens, UniProt P27338).
T2 sequence (P27338 1-520): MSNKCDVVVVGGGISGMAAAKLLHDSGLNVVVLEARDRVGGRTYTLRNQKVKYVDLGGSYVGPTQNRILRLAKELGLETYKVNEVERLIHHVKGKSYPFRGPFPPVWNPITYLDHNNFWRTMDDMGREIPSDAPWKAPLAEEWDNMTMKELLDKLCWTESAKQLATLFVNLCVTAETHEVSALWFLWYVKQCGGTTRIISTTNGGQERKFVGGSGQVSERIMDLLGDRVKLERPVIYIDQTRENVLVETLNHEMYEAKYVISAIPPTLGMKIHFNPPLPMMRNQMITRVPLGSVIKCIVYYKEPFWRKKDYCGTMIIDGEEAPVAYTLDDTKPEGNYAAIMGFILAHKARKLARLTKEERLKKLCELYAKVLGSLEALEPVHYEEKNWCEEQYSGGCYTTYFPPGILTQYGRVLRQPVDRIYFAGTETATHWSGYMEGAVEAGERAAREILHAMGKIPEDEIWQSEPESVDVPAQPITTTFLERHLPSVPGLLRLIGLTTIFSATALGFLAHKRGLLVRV
The conditions noted are these: read-out: IC50 hMAO-B.

The conditions of data set [3]: in vivo.
The subject of data set [4] is rats.
The target in data set [5] is T3, human ALDH-2 enzyme (Homo sapiens, UniProt P05091).
T3 sequence (P05091 18-517): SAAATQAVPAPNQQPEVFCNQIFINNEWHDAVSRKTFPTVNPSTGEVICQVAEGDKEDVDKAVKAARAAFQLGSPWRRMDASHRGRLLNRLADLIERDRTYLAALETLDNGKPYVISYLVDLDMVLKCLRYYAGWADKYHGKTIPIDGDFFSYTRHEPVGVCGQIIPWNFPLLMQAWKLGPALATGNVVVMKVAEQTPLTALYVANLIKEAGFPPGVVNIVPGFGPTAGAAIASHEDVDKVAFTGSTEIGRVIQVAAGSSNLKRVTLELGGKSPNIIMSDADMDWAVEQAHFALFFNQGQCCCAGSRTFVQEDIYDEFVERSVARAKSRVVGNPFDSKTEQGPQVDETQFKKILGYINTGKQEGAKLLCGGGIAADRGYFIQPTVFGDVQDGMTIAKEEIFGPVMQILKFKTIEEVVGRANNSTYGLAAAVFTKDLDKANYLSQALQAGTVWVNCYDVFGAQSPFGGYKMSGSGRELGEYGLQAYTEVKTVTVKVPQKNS
As to conditions: read-out: IC50 ALDH-2.

In data set [6] the test system is patients.

As for `COCCOc1cc(Cl)c(C(=O)NCc2ccc(-c3cc[nH]c(=O)c3)cc2)c(Cl)c1` [(3), 2,6-dichloro-4-(2-methoxyethoxy)-N-(4-(2-oxo-1,2-dihydropyridin-4-yl)benzyl)benzamide], the IC50 in data set [1] and in data set [2] was above 130 µM throughout.
`O=C(NCc1ccc(-c2cc[nH]c(=O)c2)cc1)c1cccc(F)c1Cl` [(4), 2-chloro-3-fluoro-N-(4-(2-oxo-1,2-dihydropyridin-4-yl)benzyl)benzamide]: the IC50 in data set [1] and in data set [2] was above 130 µM each time.
Regarding `Cc1cccc(Cl)c1C(=O)NCc1ccc(-c2cc[nH]c(=O)c2)cc1` [(5), 2-chloro-6-methyl-N-(4-(2-oxo-1,2-dihydropyridin-4-yl)benzyl)benzamide], the IC50 in data set [1] and in data set [2] was above 130 µM in each case.
Consider `Cc1cccc(C)c1C(=O)NCc1ccc(-c2cc[nH]c(=O)c2)cc1` [(6), 2,6-dimethyl-N-(4-(2-oxo-1,2-dihydropyridin-4-yl)benzyl)benzamide], for which the IC50 in data set [1] and in data set [2] was above 130 µM throughout.
Regarding `Cc1cc(-c2ccc(CNC(=O)c3c(Cl)cccc3Cl)cc2)cc(=O)[nH]1` [(7), 2,6-dichloro-N-[4-(6-methyl-2-oxo-1,2-dihydro-pyridin-4-yl)-benzyl]-benzamide], the IC50 in data set [1] and in data set [2] was above 130 µM throughout.
For `O=C(NCc1ccc(-c2cc[nH]c(=O)c2)cc1)c1c(F)ccc(F)c1Cl` [(8), 2-chloro-3,6-difluoro-N-(4-(2-oxo-1,2-dihydropyridin-4-yl)benzyl)benzamide], the IC50 in data set [1] and in data set [2] was above 130 µM in each case.
As for `Cc1cc(CNC(=O)c2c(Cl)cccc2Cl)ccc1-c1cc[nH]c(=O)c1` [(9), 2,6-dichloro-N-(3-methyl-4-(2-oxo-1,2-dihydropyridin-4-yl)benzyl)benzamide], the IC50 in data set [1] and in data set [2] was above 130 µM throughout.
As for `Cn1ccc(-c2ccc(CNC(=O)c3c(Cl)cccc3Cl)cc2)cc1=O` [(10), 2,6-dichloro-N-(4-(1-methyl-2-oxo-1,2-dihydropyridin-4-yl)benzyl)benzamide], the IC50 in data set [1] and in data set [2] was above 130 µM in each case.
`O=C(NCc1ccc(-c2cc[nH]c(=O)c2)cc1)c1c(F)cccc1F` [(11), 2,6-difluoro-N-(4-(2-oxo-1,2-dihydropyridin-4-yl)benzyl)benzamide]: the IC50 in data set [1] and in data set [2] was above 130 µM in each case.
Regarding `O=C(NCc1ccc(-c2cc[nH]c(=O)c2)cc1)c1c(F)cccc1Cl` [(12), 2-chloro-6-fluoro-N-(4-(2-oxo-1,2-dihydropyridin-4-yl)benzyl)benzamide], the IC50 in data set [1] and in data set [2] was above 130 µM in each case.
As to `O=C(NCc1ccc(-c2cc[nH]c(=O)c2)cc1F)c1c(Cl)cccc1Cl` [(13), 2,6-dichloro-N-(2-fluoro-4-(2-oxo-1,2-dihydropyridin-4-yl)benzyl)benzamide], the IC50 in data set [1] and in data set [2] was above 130 µM throughout.
With `O=C(NCc1ccc(-c2cc(=O)[nH]cc2F)cc1)c1c(Cl)cccc1Cl` [(14), 2,6-dichloro-N-(4-(5-fluoro-2-oxo-1,2-dihydropyridin-4-yl)benzyl)benzamide], the IC50 in data set [1] and in data set [2] was above 130 µM each time.
Take `O=C(NCc1ccc(-c2cc[nH]c(=O)c2)cc1)c1c(Cl)cccc1Cl` [Compound (1), 2,6-dichloro-N-[4-(2-oxo-1,2-dihydro-pyridin-4-yl)-benzyl]-benzamide]: in data set [3], the “intake of cocaine and alcohol” value was “reduce intake of cocaine and alcohol”. The IC50 in data set [1] and in data set [2] was above 130 µM each time. For the same compound, the self-administration of nicotine entry in data set [4] is “suppress self-administration of nicotine in rats”.
For `O=C(NCc1ccc(-c2ccn(COP(=O)(O)O)c(=O)c2)cc1)c1c(Cl)cccc1Cl` [Compound (2), phosphoric acid mono-(4-{4-[(2,6-dichloro-benzoylamino)-methyl]-phenyl}-2-oxo-2H-pyridin-1-ylmethyl) ester], the “in vivo metabolism of prodrug” value is on record as “undergoes in vivo cleavage of the phosphoric acid group to yield compound (1)”. Moreover, the IC50 in data set [1] was above 130 µM. The concentration for half-maximal inhibition (IC50) in data set [5] was above 10 µM. Besides, in data set [2], the IC50 was above 130 µM.
As for `O=C(O)C(O)C(O)C(=O)O.c1cnc2cc3c(cc2n1)[C@@H]1CNC[C@H]3C1` [varenicline, 7,8,9,10-tetrahydro-6,10-methano-6H-pyrazino[2,3-h][3]benzazepine], the “varenicline discontinuation due to gastrointestinal side-effects” value in data set [6] (estimated) was 2%-8%. In addition, in data set [6] (larger doses, placebo 10%), the “incidence of nausea at larger doses” value is listed as 30%. In addition, the “mild nausea, share of patients” value in data set [6] (most common side effect, smoking cessation use) is listed as ~30 % of patients. The “incidence of nausea at smaller doses” value in data set [6] (smaller doses, placebo 11%) is 16%.
